# Experimental data: publication PMC9944328 (Nature Communications, 2023)
# Like-named read-outs stand apart in the source and are kept apart here.
# Molecular target: SSTR2 (Homo sapiens, UniProt P30874)
# Assay: Bystander BRET endosomal trafficking (β-arrestin 1-Nluc, FYVE-mVenus), HEK293 (SSTR2 wild-type);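 further: HEK293 cells coexpressing Nluc-tagged β-arrestin 1 and mVenus-fused FYVE endosomal marker, bystander BRET ratio read after ligand addition, coelenterazine h substrate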
# Format: cell-based
# Design: The human full-length SSTRs and mutants were cloned into the pcDNA3.1+ vector; expressed in transfected cells; host or cells: HEK293
# Conditions: for Emax: HEK293
# [1] = best-fit value, WT-1 (F265A, I284A, K291A blocks)
# [2] = best-fit value, WT-1 (N276A, F294A blocks)
# [3] = best-fit value, WT-2 (F265A, I284A, K291A blocks)
# [4] = best-fit value, WT-2 of N276A block = WT-3 of F294A block
# [5] = best-fit value, WT-3 (F265A, I284A, K291A blocks)
# [6] = best-fit value, WT-3 of N276A block = WT-2 of F294A block
# [7] = Best-fit values, WT-1 (N276A set)
# [8] = Best-fit values, WT-1 (P220A, I130A, F265A sets)
# [9] = Best-fit values, WT-1 (R140A, Y312A sets)
# [10] = Best-fit values, WT-1/-3 (W269A set), WT-2 (N276A set), WT-1 (I284A set)
# [11] = Best-fit values, WT-2 (P220A, I130A, F265A sets)
# [12] = Best-fit values, WT-2 (R140A, Y312A sets)
# [13] = Best-fit values, WT-2 (W269A, I284A sets)
# [14] = Best-fit values, WT-3 (N276A set)
# [15] = best-fit, SSTR2 WT-1 (control in F294A block), run 1
# [16] = best-fit, SSTR2 WT-1 (control in K291A block), run 1
# [17] = best-fit, SSTR2 WT-2 (control in F294A block), run 2
# [18] = best-fit, SSTR2 WT-2 (control in K291A block), run 2
# Description: Wild-type or mutant SSTR2, β-arrestin 1-Nluc and FYVE-mVenus were co-transfected in HEK293 cells at a ratio of 1:0.5:4 on six-well plates. The next day, the transfected cells were plated on white 96-well and incubated overnight, and then cells were incubated with 90 µL HBSS containing 20 mM HEPES and coelenterazine h (5 µM) at room temperature for 40 min. After incubation, ligand was added and the signal was measured using the Synergy H1 microplate reader (BioTek) to determine a BRET ratio.
# Sequence of SSTR2 (P30874 whole entry, the tested form may be a part): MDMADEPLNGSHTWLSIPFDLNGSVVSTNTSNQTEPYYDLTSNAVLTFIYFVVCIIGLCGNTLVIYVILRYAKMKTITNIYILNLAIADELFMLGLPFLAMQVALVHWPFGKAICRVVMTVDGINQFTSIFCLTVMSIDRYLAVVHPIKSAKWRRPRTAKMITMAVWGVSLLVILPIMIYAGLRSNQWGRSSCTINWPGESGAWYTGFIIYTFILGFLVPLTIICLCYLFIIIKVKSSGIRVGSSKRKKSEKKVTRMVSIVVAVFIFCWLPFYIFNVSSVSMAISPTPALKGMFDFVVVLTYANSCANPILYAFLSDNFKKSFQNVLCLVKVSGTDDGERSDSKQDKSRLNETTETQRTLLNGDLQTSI
structure (smiles),measurement,setting,value
N#Cc1cccc(-c2ccc3ncc(-c4cc(F)cc(F)c4)c(N4CCC(N)CC4)c3c2)c1O [paltusotine],Fold of WT,"Bystander BRET EC50, SSTR2-WT",1.00
same,EC50,"EC50, Bystander BRET, SSTR2-WT, n=6",122 ± 1.31 nM
same,EC50,"EC50, best-fit value, WT-1 (F265A, I284A, K291A blocks)",40.4 nM
same,EC50,"EC50, best-fit value, WT-1 (N276A, F294A blocks)",250 nM
same,EC50,"EC50, best-fit value, WT-2 (F265A, I284A, K291A blocks)",131 nM
same,EC50,"EC50, best-fit value, WT-2 of N276A block = WT-3 of F294A block",219 nM
same,EC50,"EC50, best-fit value, WT-3 (F265A, I284A, K291A blocks)",58.5 nM
same,EC50,"EC50, best-fit value, WT-3 of N276A block = WT-2 of F294A block",202 nM
same,Emax,,100%
same,Bottom (best-fit),WT-1 (run 1),1.413
same,LogEC50 (best-fit),WT-1 (run 1),-7.394
same,Span (best-fit),WT-1 (run 1),100
same,Top (best-fit),WT-1 (run 1),101.4
same,Bottom (best-fit),WT-2 (run 2),-7.096
same,LogEC50 (best-fit),WT-2 (run 2),-6.882
same,Span (best-fit),WT-2 (run 2),113.5
same,Top (best-fit),WT-2 (run 2),106.4
same,Bottom (best-fit),WT-3 (run 3),-1.006
same,LogEC50 (best-fit),WT-3 (run 3),-7.233
same,Span (best-fit),WT-3 (run 3),104.3
same,Top (best-fit),WT-3 (run 3),103.3
same,Bottom,[1],1.413
same,LogEC50,[1],-7.394
same,Span,[1],100
same,Top,[1],101.4
same,Bottom,[2],-1.996
same,LogEC50,[2],-6.603
same,Span,[2],108.2
same,Top,[2],106.2
same,Bottom,[3],-7.096
same,LogEC50,[3],-6.882
same,Span,[3],113.5
same,Top,[3],106.4
same,Bottom,[4],-1.129
same,LogEC50,[4],-6.66
same,Span,[4],107.2
same,Top,[4],106.1
same,Bottom,[5],-1.006
same,LogEC50,[5],-7.233
same,Span,[5],104.3
same,Top,[5],103.3
same,Bottom,[6],-1.982
same,LogEC50,[6],-6.696
same,Span,[6],107.7
same,Top,[6],105.7
C[C@@H](O)[C@@H]1NC(=O)[C@H](CCCCN)NC(=O)[C@@H](Cc2c[nH]c3ccccc23)NC(=O)[C@H](Cc2ccccc2)NC(=O)[C@@H](NC(=O)[C@H](N)Cc2ccccc2)CSSC[C@@H](C(=O)N[C@H](CO)[C@@H](C)O)NC1=O [octreotide],Bottom,[7],-3.249
same,Span,[7],103
same,Top,[7],99.78
same,Bottom,[8],16.02
same,Span,[8],79.41
same,Top,[8],95.44
same,Bottom,[9],-2.667
same,Span,[9],105.4
same,Top,[9],102.8
same,Span,"Best-fit values, WT-1/-3 (W269A set), WT-2 (N276A set)",83.76
same,Bottom,[10],4.545
same,Top,[10],88.3
same,Bottom,[11],0.5214
same,Span,[11],104.2
same,Top,[11],104.7
same,Bottom,[12],-1.531
same,Span,[12],100.4
same,Top,[12],98.89
same,Span,"Best-fit values, WT-2 (W269A set)",83.11
same,Bottom,[13],7.543
same,Top,[13],90.66
same,Bottom,[14],-1.634
same,Span,[14],102.4
same,Top,[14],100.7
same,Emax,"Bystander BRET, SSTR2-WT, n=6, read-out: Emax",100%
same,Bottom,[15],14.58
same,Span,[15],85.75
same,Top,[15],100.3
same,Span,"best-fit, SSTR2 WT-1 (control in I284A and K291A blocks), run 1",83.76
same,Bottom,[16],4.545
same,Top,[16],88.3
same,Bottom,[17],19.75
same,Span,[17],76.3
same,Top,[17],96.05
same,Span,"best-fit, SSTR2 WT-2 (control in I284A and K291A blocks), run 2",83.11
same,Bottom,[18],7.543
same,Top,[18],90.66
same,Bottom,"best-fit, SSTR2 WT-3 (control in F294A block), run 3",-1.634
